Experimental data: ChEMBL document CHEMBL3885861, “Open TG-GATES”

Organism: Rattus norvegicus
Test: Open TG-GATES - Regimen: Single
Assay type: toxicity, organism-based, Sprague-Dawley
Design: regimen Single, gender Male, age 6 weeks
Conditions: in vivo, po, 300 mg/kg, route gavage, dose level High; for APTT / Bas / Eos / Fbg / Hb / Ht / Lym / MCH / MCHC / MCV / Mono / Neu / PT / Plat / RBC / Ret / WBC: tissue Blood; for KIDNEY_L / KIDNEY_R / KIDNEY_TOTAL: tissue Kidney; for LIVER: tissue Liver; for A/G / ALP / ALT / AST / BUN / CRE / Ca / Cl / DBIL / GLC / IP / K / LDH / Na / PL / RALB / TBIL / TC / TG / TP / gamma-GTP: tissue Plasma

CCc1oc2ccccc2c1C(=O)c1cc(I)c(O)c(I)c1 [BENZIODARONE]
TERMINAL_BW (3 h): 211.6 g
APTT (3 h): 17 s
Bas (3 h): 0%
Eos (3 h): 0.2%
Fbg (3 h): 206 mg/dL
Hb (3 h): 13 g/dL
Ht (3 h): 39%
Lym (3 h): 75.8%
MCH (3 h): 21.6 pg
MCHC (3 h): 33.3%
MCV (3 h): 65 fL
Mono (3 h): 7.4%
Neu (3 h): 16.4%
PT (3 h): 11.9 s
Plat (3 h): 107 x10_4/uL
RBC (3 h): 600.4 x10_4/ul
Ret (3 h): 11.4%
WBC (3 h): 93.8 x10_2/uL
KIDNEY_L (3 h): 0.9 g
KIDNEY_R (3 h): 1 g
KIDNEY_TOTAL (3 h): 1.9 g
LIVER (3 h): 10 g
A/G (3 h): 2
ALP (3 h): 893 IU/L
ALT (3 h): 37.8 IU/L
AST (3 h): 64.6 IU/L
BUN (3 h): 16.4 mg/dL
CRE (3 h): 0.6 mg/dL
Ca (3 h): 10.5 mg/dL
Cl (3 h): 102 meq/L
DBIL (3 h): 0.056 mg/dL
GLC (3 h): 230.8 mg/dL
IP (3 h): 9.7 mg/dL
K (3 h): 4.7 meq/L
LDH (3 h): 102.8 IU/L
Na (3 h): 139 meq/L
PL (3 h): 133.6 mg/dL
RALB (3 h): 3.5 g/dL
TBIL (3 h): 0.5 mg/dL
TC (3 h): 71.4 mg/dL
TG (3 h): 71.4 mg/dL
TP (3 h): 5.3 g/dL
gamma-GTP (3 h): 1.2 IU/L
TERMINAL_BW (6 h): 214.2 g
APTT (6 h): 18.2 s
Bas (6 h): 0%
Eos (6 h): 1%
Fbg (6 h): 205.8 mg/dL
Hb (6 h): 13 g/dL
Ht (6 h): 38.8%
Lym (6 h): 79%
MCH (6 h): 21.9 pg
MCHC (6 h): 33.6%
MCV (6 h): 65.4 fL
Mono (6 h): 3.6%
Neu (6 h): 16.8%
PT (6 h): 12.2 s
Plat (6 h): 113.1 x10_4/uL
RBC (6 h): 593.6 x10_4/ul
Ret (6 h): 11.2%
WBC (6 h): 70.8 x10_2/uL
KIDNEY_L (6 h): 0.9 g
KIDNEY_R (6 h): 1 g
KIDNEY_TOTAL (6 h): 1.9 g
LIVER (6 h): 9.4 g
A/G (6 h): 2.1
ALP (6 h): 980.4 IU/L
ALT (6 h): 39.6 IU/L
AST (6 h): 64.4 IU/L
BUN (6 h): 14.6 mg/dL
CRE (6 h): 0.6 mg/dL
Ca (6 h): 10.4 mg/dL
Cl (6 h): 102.8 meq/L
DBIL (6 h): 0.052 mg/dL
GLC (6 h): 235.6 mg/dL
IP (6 h): 10.3 mg/dL
K (6 h): 4.5 meq/L
LDH (6 h): 89 IU/L
Na (6 h): 140.2 meq/L
PL (6 h): 129.4 mg/dL
RALB (6 h): 3.6 g/dL
TBIL (6 h): 0.4 mg/dL
TC (6 h): 73.8 mg/dL
TG (6 h): 36 mg/dL
TP (6 h): 5.2 g/dL
gamma-GTP (6 h): 1.4 IU/L
TERMINAL_BW (9 h): 215.8 g
APTT (9 h): 18.7 s
Bas (9 h): 0%
Eos (9 h): 0.6%
Fbg (9 h): 208.2 mg/dL
Hb (9 h): 13.5 g/dL
Ht (9 h): 40.2%
Lym (9 h): 80%
MCH (9 h): 22.1 pg
MCHC (9 h): 33.6%
MCV (9 h): 65.7 fL
Mono (9 h): 6.8%
Neu (9 h): 12.8%
PT (9 h): 12.2 s
Plat (9 h): 114.6 x10_4/uL
RBC (9 h): 612 x10_4/ul
Ret (9 h): 9.3%
WBC (9 h): 88.9 x10_2/uL
KIDNEY_L (9 h): 1 g
KIDNEY_R (9 h): 1 g
KIDNEY_TOTAL (9 h): 2 g
LIVER (9 h): 9 g
A/G (9 h): 2.1
ALP (9 h): 976.4 IU/L
ALT (9 h): 38.2 IU/L
AST (9 h): 63 IU/L
BUN (9 h): 17 mg/dL
CRE (9 h): 0.6 mg/dL
Ca (9 h): 10.5 mg/dL
Cl (9 h): 103.8 meq/L
DBIL (9 h): 0.098 mg/dL
GLC (9 h): 214 mg/dL
IP (9 h): 10.8 mg/dL
K (9 h): 4.7 meq/L
LDH (9 h): 107.6 IU/L
Na (9 h): 141.8 meq/L
PL (9 h): 139.2 mg/dL
RALB (9 h): 3.7 g/dL
TBIL (9 h): 0.2 mg/dL
TC (9 h): 75.4 mg/dL
TG (9 h): 77 mg/dL
TP (9 h): 5.4 g/dL
gamma-GTP (9 h): 1.4 IU/L
TERMINAL_BW (24 h): 220.7 g
APTT (24 h): 16.9 s
Bas (24 h): 0%
Eos (24 h): 0.6%
Fbg (24 h): 200.8 mg/dL
Hb (24 h): 13.4 g/dL
Ht (24 h): 39.8%
Lym (24 h): 81%
MCH (24 h): 21.7 pg
MCHC (24 h): 33.8%
MCV (24 h): 64.4 fL
Mono (24 h): 6%
Neu (24 h): 12.6%
PT (24 h): 12.1 s
Plat (24 h): 120.3 x10_4/uL
RBC (24 h): 618.2 x10_4/ul
Ret (24 h): 9.6%
WBC (24 h): 106.3 x10_2/uL
KIDNEY_L (24 h): 1 g
KIDNEY_R (24 h): 1 g
KIDNEY_TOTAL (24 h): 2 g
LIVER (24 h): 11.9 g
A/G (24 h): 2.2
ALP (24 h): 1044.4 IU/L
ALT (24 h): 36.2 IU/L
AST (24 h): 67.2 IU/L
BUN (24 h): 17.8 mg/dL
CRE (24 h): 0.6 mg/dL
Ca (24 h): 10.7 mg/dL
Cl (24 h): 104 meq/L
DBIL (24 h): 0.008 mg/dL
GLC (24 h): 184.8 mg/dL
IP (24 h): 8.3 mg/dL
K (24 h): 4.6 meq/L
LDH (24 h): 89.2 IU/L
Na (24 h): 141.2 meq/L
PL (24 h): 120.2 mg/dL
RALB (24 h): 3.9 g/dL
TBIL (24 h): 0.3 mg/dL
TC (24 h): 66.6 mg/dL
TG (24 h): 72 mg/dL
TP (24 h): 5.7 g/dL
gamma-GTP (24 h): 1.4 IU/L
